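48-hour exposure; five concentrations; linearly interpolated endpoints. Here, GI50 denotes the concentration required for 50% inhibition of growth. TGI marks complete inhibition of growth.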
Key:
Test in all cases: NCI tumour cell line growth inhibition, 48 h
[1] = test system: TK-10 renal
[2] = test system: SF-295 CNS
[3] = test system: NCI-H23 lung
[4] = test system: MALME-3M melanoma
[5] = test system: K-562 leukemia
[6] = test system: RXF 393 renal
[7] = test system: EKVX NSCLC
[8] = test system: SW-620 colon
[9] = test system: SNB-19 CNS
[10] = test system: DU-145 prostate
[11] = test system: SF-539 CNS
[12] = test system: NCI-H226 lung
[13] = test system: CAKI-1 renal
[14] = test system: PC-3 prostate
[15] = test system: KM12 colon
[16] = test system: HCT-15 colon
[17] = test system: OVCAR-3 ovarian
[18] = test system: HOP-62 NSCLC
[19] = test system: SK-MEL-5 melanoma
[20] = test system: NCI/ADR-RES ovarian
[21] = test system: SK-MEL-28 melanoma
[22] = test system: LOX IMVI melanoma
[23] = test system: A549 NSCLC
[24] = test system: OVCAR-5 ovarian
[25] = test system: BT-549 breast
[26] = test system: NCI-H460 lung
[27] = test system: COLO 205 colon
[28] = test system: HCT-116 colon
[29] = test system: MDA-MB-231 breast
[30] = test system: SK-MEL-2 melanoma
[31] = test system: OVCAR-4 ovarian
[32] = test system: MDA-MB-435
[33] = test system: ACHN renal
[34] = test system: 786-0 renal
[35] = test system: UO-31 renal
[36] = test system: SF-268 CNS
[37] = test system: UACC-62 melanoma
[38] = test system: HOP-92 NSCLC
[39] = test system: HS 578T breast
[40] = test system: RPMI-8226 leukemia
[41] = test system: IGROV1 ovarian
[42] = test system: HT29 colon
[43] = test system: MCF7 breast
[44] = test system: SR leukemia
[45] = test system: CCRF-CEM leukemia
[46] = test system: OVCAR-8 ovarian
[47] = test system: NCI-H522 lung
[48] = test system: HL-60(TB) leukemia
[49] = test system: T-47D breast
[50] = test system: SNB-75 CNS
[51] = test system: SN12C renal
[52] = test system: MOLT-4 leukemia
[53] = test system: SK-OV-3 ovarian
[54] = test system: M14 melanoma
[55] = test system: A498 renal
[56] = test system: U251 CNS
[57] = test system: UACC-257 melanoma

Compound `O=C1/C(=C\c2ccc(Cl)cc2)CCOc2c1ccc1ccccc21` has a GI50 [1] of 27.6 µM, a TGI [1] of 72.3 µM and a GI50 [2] of 33.5 µM. It also gave a TGI [2] greater than 100 µM, a GI50 [3] of 21.6 µM and a TGI [3] of 56.7 µM. For the same compound, the GI50 [4] was 25.9 µM, the TGI [4] was 57.9 µM and the GI50 [5] was 22.5 µM. The TGI [5] was greater than 100 µM, the GI50 [6] was 22.4 µM and the TGI [6] was 63.6 µM. It also gave a GI50 [7] of 16.7 µM, a TGI [7] of 47.6 µM and a GI50 [8] of 38.5 µM. The TGI [8] was greater than 100 µM, the GI50 [9] was 23.9 µM and the TGI [9] was 72.3 µM. For the same compound, the GI50 [10] was 19.7 µM, the TGI [10] was 61.7 µM and the GI50 [11] was 12.2 µM. It also gave a TGI [11] of 29.9 µM, a GI50 [12] of 11.2 µM and a TGI [12] of 27.1 µM. For the same compound, the GI50 [13] was 31.7 µM, the TGI [13] was 66 µM and the GI50 [14] was 43.5 µM. It also gave a TGI [14] greater than 100 µM, a GI50 [15] of 31.8 µM and a TGI [15] greater than 100 µM. The GI50 [16] was 14.9 µM, the TGI [16] was 62.4 µM and the GI50 [17] was 39.4 µM. The TGI [17] was 87.6 µM, the GI50 [18] was 25.8 µM and the TGI [18] was 63.6 µM. For the same compound, the GI50 [19] was 20.6 µM, the TGI [19] was 45.8 µM and the GI50 [20] was 19.6 µM. The TGI [20] was 62.8 µM, the GI50 [21] was 19 µM and the TGI [21] was 38.2 µM. It also gave a GI50 [22] of 18.6 µM, a TGI [22] of 42.3 µM and a GI50 [23] of 42.8 µM. For the same compound, the TGI [23] was greater than 100 µM, the GI50 [24] was 26.1 µM and the TGI [24] was 78.8 µM. The GI50 [25] was 18.8 µM, the TGI [25] was 47 µM and the GI50 [26] was 21.4 µM. For the same compound, the TGI [26] was 76.4 µM, the GI50 [27] was 22 µM and the TGI [27] was 50.1 µM. The GI50 [28] was 35 µM, the TGI [28] was greater than 100 µM and the GI50 [29] was 18.6 µM. For the same compound, the TGI [29] was 57 µM, the GI50 [30] was 87.5 µM and the TGI [30] was greater than 100 µM. The GI50 [31] was 36.7 µM, the TGI [31] was greater than 100 µM and the GI50 [32] was 23.2 µM. It also gave a TGI [32] greater than 100 µM, a GI50 [33] of 20.4 µM and a TGI [33] of 42.9 µM. It also gave a GI50 [34] of 24 µM, a TGI [34] of 55.7 µM and a GI50 [35] of 35.4 µM. The TGI [35] was greater than 100 µM, the GI50 [36] was 24.2 µM and the TGI [36] was 83.9 µM. For the same compound, the GI50 [37] was 18.7 µM, the TGI [37] was 47 µM and the GI50 [38] was 17.8 µM. It also gave a TGI [38] of 63.4 µM, a GI50 [39] of 46.5 µM and a TGI [39] greater than 100 µM. For the same compound, the GI50 [40] was 14 µM, the TGI [40] was 55.5 µM and the GI50 [41] was 55.3 µM. The TGI [41] was greater than 100 µM, the GI50 [42] was 22.6 µM and the TGI [42] was 72 µM. The GI50 [43] was 19.4 µM, the TGI [43] was greater than 100 µM and the GI50 [44] was 11.9 µM. The TGI [44] was greater than 100 µM, the GI50 [45] was 28.8 µM and the TGI [45] was greater than 100 µM. It also gave a GI50 [46] of 28.1 µM, a TGI [46] greater than 100 µM and a GI50 [47] of 30.1 µM. The TGI [47] was greater than 100 µM, the GI50 [48] was 46.4 µM and the TGI [48] was greater than 100 µM. The GI50 [49] was 19 µM, the TGI [49] was 42.2 µM and the GI50 [50] was 34.6 µM. The TGI [50] was greater than 100 µM, the GI50 [51] was 18.5 µM and the TGI [51] was 49.6 µM. The GI50 [52] was 11.7 µM, the TGI [52] was greater than 100 µM and the GI50 [53] was 42.6 µM. For the same compound, the TGI [53] was greater than 100 µM, the GI50 [54] was 36.3 µM and the TGI [54] was greater than 100 µM. For the same compound, the GI50 [55] was 36.4 µM, the TGI [55] was 61.8 µM and the GI50 [56] was 20.3 µM. The TGI [56] was 58.6 µM, the GI50 [57] was 29.8 µM and the TGI [57] was 83.3 µM.

— PubChem BioAssay (NCI)
